Like-named read-outs stand apart in the source and are kept apart here.
Legend:
Format in all cases: biochemical
[1] = target: T1, PDE9A2 (Homo sapiens, UniProt O76083); assay: Phosphodiesterase enzyme screening assay, PDE9A2
T1 construct: purchased Reaction Biology Corporation, Malvern, Pa
Outline: (§1)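 Read-out was electrophoretic mobility-shift separation on chip of fluorescent cyclic nucleotide from 5′-AMP/5′-GMP, with inhibition or enhancement judged against control wells (quadruplicate means). Reactions lasted 1 h at RT in HEPES pH 7.5 buffer with MgCl2, DTT and Brij plus 4.0 μM cGMP substrate, then were halted with EDTA stop buffer.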

[2] = target: T2, PDE1A (Homo sapiens, UniProt P54750); assay: Phosphodiesterase enzyme screening assay, PDE1A; conditions: value greater than 1 indicates greater selectivity for PDE9A2
T2 construct: purchased Reaction Biology Corporation, Malvern, Pa
Outline: as §1

[3] = target: T3, PDE1B (Homo sapiens, UniProt Q01064); assay: Phosphodiesterase enzyme screening assay, PDE1B; conditions: value greater than 1 indicates greater selectivity for PDE9A2
T3 construct: purchased Reaction Biology Corporation, Malvern, Pa
Outline: as §1

[4] = IC50 band, 4.0 μM cGMP substrate, 1 hour at R.T.
[5] = ratio of IC50 values PDE1A vs PDE9A2
[6] = ratio of IC50 values PDE1B vs PDE9A2
[7] = ratio of IC50 values, PDE1A versus PDE9A2
[8] = ratio of IC50 values, PDE1B versus PDE9A2
[9] = Table 1, 10 concentrations, 4.0 μM cGMP substrate, 1 hour at R.T., read-out: Band (PDE9A2 IC50)

T2 sequence (P54750 whole entry): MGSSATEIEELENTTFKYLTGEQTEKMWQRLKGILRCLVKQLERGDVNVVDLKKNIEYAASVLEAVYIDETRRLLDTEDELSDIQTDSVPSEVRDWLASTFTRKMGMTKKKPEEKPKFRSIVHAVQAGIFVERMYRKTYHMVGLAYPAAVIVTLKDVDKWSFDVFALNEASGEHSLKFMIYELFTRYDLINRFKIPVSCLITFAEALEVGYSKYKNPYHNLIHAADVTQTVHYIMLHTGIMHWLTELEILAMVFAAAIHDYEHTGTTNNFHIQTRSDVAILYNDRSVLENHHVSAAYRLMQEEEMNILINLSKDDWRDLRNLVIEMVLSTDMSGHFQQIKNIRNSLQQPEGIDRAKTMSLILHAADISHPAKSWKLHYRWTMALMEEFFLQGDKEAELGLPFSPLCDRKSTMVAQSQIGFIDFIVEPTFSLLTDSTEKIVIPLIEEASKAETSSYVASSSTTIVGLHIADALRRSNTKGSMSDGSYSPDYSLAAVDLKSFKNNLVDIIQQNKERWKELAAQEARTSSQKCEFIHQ
T1 sequence (O76083 1-533 isoform O76083-2): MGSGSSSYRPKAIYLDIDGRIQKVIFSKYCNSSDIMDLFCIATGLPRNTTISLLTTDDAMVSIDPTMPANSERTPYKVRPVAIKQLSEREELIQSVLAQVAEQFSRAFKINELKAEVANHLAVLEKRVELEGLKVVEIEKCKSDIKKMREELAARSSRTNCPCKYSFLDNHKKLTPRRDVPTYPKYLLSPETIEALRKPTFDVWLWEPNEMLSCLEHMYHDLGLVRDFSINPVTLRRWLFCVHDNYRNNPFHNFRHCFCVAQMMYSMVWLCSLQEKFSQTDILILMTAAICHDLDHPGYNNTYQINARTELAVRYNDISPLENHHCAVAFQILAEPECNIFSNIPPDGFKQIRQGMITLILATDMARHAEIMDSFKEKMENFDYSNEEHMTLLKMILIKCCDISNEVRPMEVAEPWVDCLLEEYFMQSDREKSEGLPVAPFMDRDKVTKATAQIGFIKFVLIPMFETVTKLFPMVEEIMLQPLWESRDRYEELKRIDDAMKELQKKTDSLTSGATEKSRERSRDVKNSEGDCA
T3 sequence (Q01064 whole entry): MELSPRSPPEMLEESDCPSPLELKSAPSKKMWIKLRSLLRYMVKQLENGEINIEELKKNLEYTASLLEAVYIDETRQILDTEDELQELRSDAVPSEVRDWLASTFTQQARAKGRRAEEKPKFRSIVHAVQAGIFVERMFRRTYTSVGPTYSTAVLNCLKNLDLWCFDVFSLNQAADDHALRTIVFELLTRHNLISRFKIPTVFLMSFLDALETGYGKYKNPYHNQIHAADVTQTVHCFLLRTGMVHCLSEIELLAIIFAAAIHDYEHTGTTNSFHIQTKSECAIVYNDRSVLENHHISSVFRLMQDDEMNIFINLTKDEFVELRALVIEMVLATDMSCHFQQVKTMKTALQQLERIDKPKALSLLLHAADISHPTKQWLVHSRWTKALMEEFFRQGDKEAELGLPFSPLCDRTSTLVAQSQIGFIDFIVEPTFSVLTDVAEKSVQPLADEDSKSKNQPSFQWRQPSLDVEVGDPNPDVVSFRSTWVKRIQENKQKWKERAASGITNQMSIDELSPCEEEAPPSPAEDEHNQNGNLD

Cc1cc(F)ccc1-c1ncc2c(=O)[nH]c(C3CN(Cc4cnccn4)CC3C)nn12 (single isomer, unassigned; (+)) [(+)-7-(4-fluoro-2-methylphenyl)-2-((3,4-trans)-4-methyl-1-(pyrazin-2-ylmethyl)pyrrolidin-3-yl)imidazo[5,1-f][1,2,4]triazin-4(3H)-one]
IC50 [1, 4]: < 1000 nM | PDE1A selectivity (versus PDE9A2) [2, 5]: 342 | PDE1B selectivity (versus PDE9A2) [3, 6]: 393

Cc1cc(F)ccc1-c1ncc2c(=O)[nH]c(C3CN(Cc4ccccn4)CC3C)nn12 (single isomer, unassigned; (+)) [(+)-7-(4-fluoro-2-methylphenyl)-2-((3,4-trans)-4-methyl-1-(pyridin-2-ylmethyl)pyrrolidin-3-yl)imidazo[5,1-f][1,2,4]triazin-4(3H)-one]
IC50 [1, 4]: < 1000 nM | PDE1A selectivity (versus PDE9A2) [2, 5]: 5780 | PDE1B selectivity (versus PDE9A2) [3, 6]: 374

Cc1cc(F)ccc1-c1ncc2c(=O)[nH]c(C3CN(Cc4cccnc4)CC3C)nn12 (single isomer, unassigned; (+)) [(+)-7-(4-fluoro-2-methylphenyl)-2-((3,4-trans)-4-methyl-1-(pyridin-3-ylmethyl)pyrrolidin-3-yl)imidazo[5,1-f][1,2,4]triazin-4(3H)-one]
IC50 [1, 4]: < 1000 nM | PDE1A selectivity (versus PDE9A2) [2, 5]: 452 | PDE1B selectivity (versus PDE9A2) [3, 6]: 492

CC1CN(Cc2cn3ccccc3n2)CC1c1nn2c(-c3ccc(F)cc3)ncc2c(=O)[nH]1 (single isomer, unassigned; (+)) [(+)-7-(4-fluorophenyl)-2-((3,4-trans)-1-(imidazo[1,2-a]pyridin-2-ylmethyl)-4-methylpyrrolidin-3-yl)imidazo[5,1-f][1,2,4]triazin-4(3H)-one]
IC50 ([1]; read-out: Band (PDE9A2 IC50)): < 1000 nM | PDE1A selectivity (versus PDE9A2) [2, 7]: 120 | PDE1B selectivity (versus PDE9A2) [3, 8]: 209

CC1CN(Cc2cnccn2)CC1c1nn2c(-c3ccc(F)cc3)ncc2c(=O)[nH]1 (single isomer, unassigned; (+)) [(+)-7-(4-fluorophenyl)-2-((3,4-trans)-4-methyl-1-(pyrazin-2-ylmethyl)pyrrolidin-3-yl)imidazo[5,1-f][1,2,4]triazin-4(3H)-one]
IC50 ([1]; read-out: Band (PDE9A2 IC50)): < 1000 nM | PDE1A selectivity (versus PDE9A2) [2, 7]: 9 | PDE1B selectivity (versus PDE9A2) [3, 8]: 8

Cc1ccc(F)cc1-c1ncc2c(=O)[nH]c(C3CN(Cc4ccc(F)cc4)CC3C)nn12 (single isomer, unassigned; (+)) [(+)-7-(5-fluoro-2-methylphenyl)-2-((3,4-trans)-1-(4-fluorobenzyl)-4-methylpyrrolidin-3-yl)imidazo[5,1-f][1,2,4]triazin-4(3H)-one]
IC50 [1, 4]: < 1000 nM | PDE1A selectivity (versus PDE9A2) [2, 5]: 1738 | PDE1B selectivity (versus PDE9A2) [3, 6]: 393

Cc1ccc(F)cc1-c1ncc2c(=O)[nH]c(C3CN(Cc4cn5ccccc5n4)CC3C)nn12 (single isomer, unassigned; (+)) [(+)-7-(5-fluoro-2-methylphenyl)-2-((3,4-trans)-1-(imidazo[1,2-a]pyridin-2-ylmethyl)-4-methylpyrrolidin-3-yl)imidazo[5,1-f][1,2,4]triazin-4(3H)-one]
IC50 [1, 4]: < 1000 nM | PDE1A selectivity (versus PDE9A2) [2, 5]: 1437 | PDE1B selectivity (versus PDE9A2) [3, 6]: 1427

Cc1ccc(F)cc1-c1ncc2c(=O)[nH]c(C3CN(Cc4cnccn4)CC3C)nn12 (single isomer, unassigned; (+)) [(+)-7-(5-fluoro-2-methylphenyl)-2-((3,4-trans)-4-methyl-1-(pyrazin-2-ylmethyl)pyrrolidin-3-yl)imidazo[5,1-f][1,2,4]triazin-4(3H)-one]
IC50 [1, 4]: < 1000 nM | PDE1A selectivity (versus PDE9A2) [2, 5]: 85 | PDE1B selectivity (versus PDE9A2) [3, 6]: 74

Cc1ccc(F)cc1-c1ncc2c(=O)[nH]c(C3CN(Cc4ccccn4)CC3C)nn12 (single isomer, unassigned; (+)) [(+)-7-(5-fluoro-2-methylphenyl)-2-((3,4-trans)-4-methyl-1-(pyridin-2-ylmethyl)pyrrolidin-3-yl)imidazo[5,1-f][1,2,4]triazin-4(3H)-one]
IC50 [1, 4]: < 1000 nM | PDE1A selectivity (versus PDE9A2) [2, 5]: 560 | PDE1B selectivity (versus PDE9A2) [3, 6]: 277

Cc1ccc(F)cc1-c1ncc2c(=O)[nH]c(C3CN(Cc4cccnc4)CC3C)nn12 (single isomer, unassigned; (+)) [(+)-7-(5-fluoro-2-methylphenyl)-2-((3,4-trans)-4-methyl-1-(pyridin-3-ylmethyl)pyrrolidin-3-yl)imidazo[5,1-f][1,2,4]triazin-4(3H)-one]
IC50 [1, 4]: < 1000 nM | PDE1A selectivity (versus PDE9A2) [2, 5]: 770 | PDE1B selectivity (versus PDE9A2) [3, 6]: 505

CC1CN(Cc2ccc(F)cc2)CC1c1nn2c(C3CCCC3)ncc2c(=O)[nH]1 (single isomer, unassigned; (+)) [(+)-7-cyclopentyl-2-((3,4-trans)-1-(4-fluorobenzyl)-4-methylpyrrolidin-3-yl)imidazo[5,1-f][1,2,4]triazin-4(3H)-one]
IC50 ([1]; read-out: Band (PDE9A2 IC50)): < 1000 nM | PDE1A selectivity (versus PDE9A2) [2, 7]: 41 | PDE1B selectivity (versus PDE9A2) [3, 8]: 104

CC1CN(Cc2cn3ccccc3n2)CC1c1nn2c(C3CCCC3)ncc2c(=O)[nH]1 (single isomer, unassigned; (+)) [(+)-7-cyclopentyl-2-((3,4-trans)-1-(imidazo[1,2-a]pyridin-2-ylmethyl)-4-methylpyrrolidin-3-yl)imidazo[5,1-f][1,2,4]triazin-4(3H)-one]
IC50 ([1]; read-out: Band (PDE9A2 IC50)): < 1000 nM | PDE1A selectivity (versus PDE9A2) [2, 7]: 57 | PDE1B selectivity (versus PDE9A2) [3, 8]: 125

CC1CN(Cc2ncccn2)CC1c1nn2c(C3CCCC3)ncc2c(=O)[nH]1 (single isomer, unassigned; (+)) [(+)-7-cyclopentyl-2-((3,4-trans)-4-methyl-1-(pyrimidin-2-ylmethyl)pyrrolidin-3-yl)imidazo[5,1-f][1,2,4]triazin-4(3H)-one]
IC50 ([1]; read-out: Band (PDE9A2 IC50)): < 1000 nM | PDE1A selectivity (versus PDE9A2) [2, 7]: 60 | PDE1B selectivity (versus PDE9A2) [3, 8]: 45

CC1CN(Cc2ccc(F)cc2)CC1c1nn2c(C3CCC(F)(F)CC3)ncc2c(=O)[nH]1 (single isomer, unassigned; (+)) [(+)-(4,4-difluorocyclohexyl)-2-((3,4-trans)-1-(4-fluorobenzyl)-4-methylpyrrolidin-3-yl)imidazo[5,1-f][1,2,4]triazin-4(3H)-one]
IC50 [1, 9]: < 1000 nM | PDE1A selectivity (versus PDE9A2) ([2]; Table 1, ratio of IC50 values): 1453 | PDE1B selectivity (versus PDE9A2) ([3]; Table 1, ratio of IC50 values): 2980

CC1CN(C)CC1c1nn2c(C3CCOCC3)ncc2c(=O)[nH]1 (single isomer, unassigned; (+)) [(+)-((3,4-trans)-1,4-dimethylpyrrolidin-3-yl)-7-(tetrahydro-2H-pyran-4-yl)imidazo[5,1-f][1,2,4]triazin-4(3H)-one]
IC50 [1, 9]: < 1000 nM | PDE1A selectivity (versus PDE9A2) ([2]; Table 1, ratio of IC50 values): 75 | PDE1B selectivity (versus PDE9A2) ([3]; Table 1, ratio of IC50 values): 121

CC1CN(Cc2ccccc2C2CC2)CC1c1nn2c(C3CCOCC3)ncc2c(=O)[nH]1 (single isomer, unassigned; (-)) [(−)-2-((3,4-trans)-1-(2-cyclopropylbenzyl)-4-methylpyrrolidin-3-yl)-7-(tetrahydro-2H-pyran-4-yl)imidazo[5,1-f][1,2,4]triazin-4(3H)-one]
IC50 [1, 9]: < 1000 nM | PDE1A selectivity (versus PDE9A2) ([2]; Table 1, ratio of IC50 values): 685 | PDE1B selectivity (versus PDE9A2) ([3]; Table 1, ratio of IC50 values): 505

CC1CN(C(=O)c2ccccc2F)CC1c1nn2c(C3CCOCC3)ncc2c(=O)[nH]1 (single isomer, unassigned; (-)) [(−)-2-((3,4-trans)-1-(2-fluorobenzoyl)-4-methylpyrrolidin-3-yl)-7-(tetrahydro-2H-pyran-4-yl)imidazo[5,1-f][1,2,4]triazin-4(3H)-one]
IC50 [1, 9]: < 1000 nM | PDE1A selectivity (versus PDE9A2) ([2]; Table 1, ratio of IC50 values): 9 | PDE1B selectivity (versus PDE9A2) ([3]; Table 1, ratio of IC50 values): 7

CC1CN(C(=O)c2cccc(F)c2)CC1c1nn2c(C3CCOCC3)ncc2c(=O)[nH]1 (single isomer, unassigned; (-)) [(−)-2-((3,4-trans)-1-(3-fluorobenzoyl)-4-methylpyrrolidin-3-yl)-7-(tetrahydro-2H-pyran-4-yl)imidazo[5,1-f][1,2,4]triazin-4(3H)-one]
IC50 [1, 9]: < 1000 nM | PDE1A selectivity (versus PDE9A2) ([2]; Table 1, ratio of IC50 values): 26 | PDE1B selectivity (versus PDE9A2) ([3]; Table 1, ratio of IC50 values): 26

Cc1ccc(F)cc1-c1ncc2c(=O)[nH]c(C3CN(Cc4ccc(Cl)cc4)CC3C)nn12 (single isomer, unassigned; (-)) [(−)-2-((3,4-trans)-1-(4-chlorobenzyl)-4-methylpyrrolidin-3-yl)-7-(5-fluoro-2-methylphenyl)imidazo[5,1-f][1,2,4]triazin-4(3H)-one]
IC50 [1, 4]: < 1000 nM | PDE1A selectivity (versus PDE9A2) [2, 5]: 3375 | PDE1B selectivity (versus PDE9A2) [3, 6]: 1735

CC1CN(Cc2nc3ccccc3[nH]2)CC1c1nn2c(C3CCOCC3)ncc2c(=O)[nH]1 (single isomer, unassigned; (-)) [(−)-2-((3,4-trans)-1-((1H-benzo[d]imidazol-2-yl)methyl)-4-methylpyrrolidin-3-yl)-7-(tetrahydro-2H-pyran-4-yl)imidazo[5,1-f][1,2,4]triazin-4(3H)-one]
IC50 [1, 9]: < 1000 nM | PDE1A selectivity (versus PDE9A2) ([2]; Table 1, ratio of IC50 values): 433 | PDE1B selectivity (versus PDE9A2) ([3]; Table 1, ratio of IC50 values): 540

CC1CN(Cc2ccc(-c3ccccc3)cc2)CC1c1nn2c(C3CCOCC3)ncc2c(=O)[nH]1 (single isomer, unassigned; (-)) [(−)-2-((3,4-trans)-1-([1,1′-biphenyl]-4-ylmethyl)-4-methylpyrrolidin-3-yl)-7-(tetrahydro-2H-pyran-4-yl)imidazo[5,1-f][1,2,4]triazin-4(3H)-one]
IC50 ([1]; read-out: Band (PDE9A2 IC50)): < 1000 nM | PDE1A selectivity (versus PDE9A2) ([2]; ratio of IC50 values): 2875 | PDE1B selectivity (versus PDE9A2) ([3]; ratio of IC50 values): 2060
